Source: US20100284984A1, “ADENOSINE AND ITS MIMETICS. MODULATORS, TRANSPORT INHIBITORS, AND RECEPTOR AGONISTS AS A THERAPEUTIC TOOL TO REPLACE OR IMPROVE THE EFFICACY OF DEEP BRAIN STIMULATION” (University of Rochester, priority 2007, published 2010)
Entries after “also recorded” stand apart in the source; their conditions may differ. Where a name gives a salt, the structure may show the parent alone. Read-outs that look alike come from different tables or passages of the source.

Columns and labels:
[1] = biological target: Nucleoside Triphosphate Diphosphohydrolases; settings: Gendron et al.; cited from earlier work
Ecto-ATPase [2] = settings: Yegutkin et al., rat liver plasma membranes; cited from earlier work
Rat Parotid Ecto-ATPase = settings: Dowd et al.; cited from earlier work
[3] = biological target: S-adenosylhomocysteine hydrolase (Homo sapiens, UniProt P23526); settings: cited from earlier work
Sequence of S-adenosylhomocysteine hydrolase (P23526 whole entry): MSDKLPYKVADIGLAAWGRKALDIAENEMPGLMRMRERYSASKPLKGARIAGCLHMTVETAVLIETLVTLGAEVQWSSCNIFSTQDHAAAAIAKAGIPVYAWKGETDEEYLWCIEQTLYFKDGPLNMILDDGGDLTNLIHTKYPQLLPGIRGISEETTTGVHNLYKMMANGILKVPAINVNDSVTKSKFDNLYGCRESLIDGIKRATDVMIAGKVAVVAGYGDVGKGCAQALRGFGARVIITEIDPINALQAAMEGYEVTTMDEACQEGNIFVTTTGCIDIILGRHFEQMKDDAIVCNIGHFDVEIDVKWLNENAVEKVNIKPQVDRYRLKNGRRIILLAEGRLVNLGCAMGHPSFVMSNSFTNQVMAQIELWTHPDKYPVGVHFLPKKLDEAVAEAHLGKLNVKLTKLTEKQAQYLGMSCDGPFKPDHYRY

Ecto-ATPase [4] = settings: Chen et al., endothelial cells; cited from earlier work
thalamic neurons [5] = experiment: Drug effect on evoked EPSPs (eEPSP) in thalamic slices, current clamp; format: cell-based, mouse
Experimental: Thalamic slices (300 μm) from 14-18 day old mouse pups (FVB/NJ mice; Jackson Laboratory) were cut on a Vibratome (TPI) in an ice-cold cutting solution containing (in mM): 2.5 KCl, 1.25 NaH2PO4, 10 MgSO4, 5 CaCl2, 10 glucose, 26 NaHCO3, 230 sucrose and gassed with 5% CO2 and 95% O2. Slices were incubated for a minimum of 1 hr in a slice solution containing (in mM): 126 NaCl, 2.5 KCl, 1.25 NaH2PO4, 2 MgCl2, 2 CaCl2, 10 glucose, and 26 NaHCO3, pH 7.4, and gassed with 5% CO2 and 95% O2 at room temperature. The slices were transferred to a recording chamber (1.5 ml) perfused with aCSF at room temperature or 32° C. Whole-cell current clamp recordings were obtained using a 700B Multiclamp amplifier (Axon Instruments) (Jiang et al., “A Kainate Receptor Increases The Efficacy of Gabaergic Synapses,” Neuron 30:503-13 (2001); Tian et al., “An Astrocytic Basis of Epilepsy,” Nat Med 11:973-81 (2005), which are hereby incorporated by reference in their entirety). Concentric bipolar stimulating electrodes (FHC) were placed ˜100-400 μm ventromedial to the patched VL thalamic neuron. Stimulation was delivered through a constant isolated current source (ISO-Flex stimulus isolator with a Master-8-vp stimulator; AMPI) and consisted of monophasic 60 μs square pulses of varying amplitude (15, 25, 50 μA) and frequency (25, 75, 125, 200 Hz). Based upon maximum current amplitude and the surface area of the electrode, it is estimated that the maximum charge density was in the range of ˜1-10 μC/cm^2. The artifacts of the HFS signal were blanked and staggered to allow continuous observation of the 2.5 Hz signal (Anderson et al., “Selective Attenuation of Afferent Synaptic Transmission as a Mechanism of Thalamic Deep Brain Stimulation-Induced Tremor Arrest,” J Neurosci 26:841-50 (2006), which is hereby incorporated by reference in its entirety). Adenosine measurements were detected using needle shaped electrode (Pt/Ir wire) biosensors (Sarissa Biomedical). Calibration was carried out at the beginning and end of each slice experiment in the bath above the slice. Measurements were obtained ˜100 μm from the stimulation electrode in the thalamic slice. […].
To further analyze the role of adenosine in HFS, the effect of perfusion with an aCSF containing 1-100 μM adenosine in thalamic slices was studied. […]. […] The AMPA receptor antagonist, CNQX could not be tested due to its direct effect on EPSCs (Wang et al., “Astrocytic Ca(2+) Signaling Evoked by Sensory Stimulation in Vivo,” Nat Neurosci 9:816-23 (2006), which is hereby incorporated by reference in its entirety) (FIG. 3G). […]. […]

harmaline-induced tremor = experiment: Harmaline-induced tremor, intrathalamic delivery by bilateral microdialysis probes; format: in vivo, mice; settings: for tremor activity: thalamus; for tremor following washout: after cessation of microdialysis of agonist; for time course of depression of tremor: microdialysis perfusion
Experimental: Harmaline was administed i.p. 20 min prior to DBS (20-30 mg/kg) (Wilms et al., “Animal Models of Tremor,” Mov Disord 14:557-71 (1999); Martin et al., “Harmaline-Induced Tremor as a Potential Preclinical Screening Method for Essential Tremor Medications,” Mov Disord 20:298-305 (2005), which are hereby incorporated by reference in their entirety). 6-OHDA (3 μg/μl in saline containing 0.1% ascorbic acid) was injected in the right median forebrain bundle (AP: −1.2 mm; ML: ±1.1 mm; DV: −5.0 mm in a volume of 2 μl) (Jolicoeur et al., “Hypokinesia, Rigidity, and Tremor Induced by Hypothalamic 6-OHDA Lesions in The Rat,” Brain Res Bull 26:317-20 (1991), which are hereby incorporated by reference in their entirety) in mice anaesthetized with urethane (1.6 g/kg). Only animals that developed body tremor were included in the study. Tacrine was administered in a dose of 2.5 mg/kg i.p. and induced a robust jaw response with the peak frequency within the 3-5 Hz range (Cousins et al., “Tremulous Jaw Movements Induced by The Acetylcholinesterase Inhibitor Tacrine: Effects of Antiparkinsonian Drugs,” Eur J Pharmacol 322:137-45 (1997), which is hereby incorporated by reference in its entirety). […] For electrode and microdialysis implantation, mice were anaesthetized with a mixture of Ketamine (60 mg/kg) and Xylazine (10 mg/kg) and placed into a stereotactic frame. The skull was exposed and concentric bipolar microelectrodes (SNE-100, KOPF) or microdialysis probes (Bioanalytical Systems, Inc.) were implanted into the ventrolateral thalamic nucleus at the following coordinates: AP: −1.4 mm; ML: ±0.9 mm; DV: −3.7 mm. The electrodes or microdialysis probes were attached to the skull with dental cement. Following 24 hrs recovery, stimulation was delivered through a constant isolated current source (An ISO-Flex stimulus isolator with a Master-8-vp stimulator; AMPI) and consisted of monophasic 60 μs square pulses of varying amplitude (15, 25, 50 μA) and frequency (25, 75, 125, 200 Hz). The electrodes implanted in tremor patients has 4 contacts with a total surface area of 0.24 cm^2, an impedance ˜500 Ohm, and an upper limit of 30 μC/cm^2 in charge density (Kuncel et al., “Selection of Stimulus Parameters for Deep Brain Stimulation,” Clin Neurophysiol 115:2431-41 (2004), which is hereby incorporated by reference in its entirety). In mice, electrodes with a smaller tip (diameter 0.0055-0.250 mm, surface area 0.001-0.05 mm^2) were used and the current amplitude was adjusted to obtain charge density within the clinical range. Microdialysis probes were perfused 24 hrs after implantation using a microinjection pump (Harvard Apparatus Inc. USA) at a rate of 2 μl/min. The perfusion buffer contained (in mM): 138 NaCl, 1.5 K2HPO4, 2 CaCl2, 2 MgCl2, 10 HEPES, pH 7.3. […]. Tremor was recorded by either EMG electrodes placed in the occipital muscles or by the Convuls-1 pressure transducer (Columbus Instruments) in awake freely moving animals. […]. The mice were perfusion-fixed and sectioned on a vibratome (TPI) for confirmation of electrode or microdialysis probe placements.
[…]. Microdialysis probes were inserted bilaterally in thalamus 24-48 hrs prior to administration of harmaline. […].

adenosine transport = settings: cited from earlier work; for Ki: adenosine transport inhibitors
thalamic neurons [6] = experiment: HFS-induced membrane depolarization of thalamic neurons; format: cell-based, mouse; settings: thalamic slices during HFS
adenosine kinase = adenosine kinase (Homo sapiens, UniProt P55263); settings: cited from earlier work
Sequence of adenosine kinase (P55263 whole entry, species assumed): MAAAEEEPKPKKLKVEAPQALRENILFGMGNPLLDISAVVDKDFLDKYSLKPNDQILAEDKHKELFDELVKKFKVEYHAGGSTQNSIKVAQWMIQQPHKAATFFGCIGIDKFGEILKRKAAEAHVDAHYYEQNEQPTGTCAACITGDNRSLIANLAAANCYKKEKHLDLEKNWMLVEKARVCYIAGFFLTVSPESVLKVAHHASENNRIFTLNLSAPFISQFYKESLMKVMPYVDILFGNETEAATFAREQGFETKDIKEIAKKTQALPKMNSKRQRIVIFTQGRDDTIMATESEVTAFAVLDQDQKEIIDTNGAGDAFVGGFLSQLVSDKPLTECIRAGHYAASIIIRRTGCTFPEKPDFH

thalamic neurons [7] = experiment: HFS-induced depression of eEPSPs in thalamic slices, pharmacology; format: cell-based, mouse; settings: 50 μM; HFS 250 μA, 100 μs, 5 sec, 20° C.

In the case of `CCCCSc1nc2c(N)ncnc2n1[C@@H]1O[C@H](COP(=O)(O)OP(=O)(O)OP(=O)(O)O)[C@@H](O)[C@H]1O` [8-Bus-ATP], the Ki [1] is listed as 10 µM.

For reactive blue, the “pIC 50” value (Ecto-ATPase [2]) is listed as 4.3 and the IC50 (Rat Parotid Ecto-ATPase) is listed as 28 µM.

In the case of 3-deaza-DEA methylester [C3-OMeDEA], the Ki ([3]; read-out: Ki) is given as 1.5 µM.

For `Nc1ncnc2c1ncn2[C@@H]1O[C@H](CO[P@](=O)(O)O[P@](=O)(O)O[P@@](=O)(O)S)[C@@H](O)[C@H]1O` [ATPyS], the “pIC 50” value (Ecto-ATPase [4]) is given as 5.2.

In the case of `OC[C@H]1O[C@@H](n2cnc3c(NC4CCCC4)nc(Cl)nc32)[C@H](O)[C@@H]1O` [CCPA, 2-chloro-N6-cyclopentyladenosine], the “depression of eEPSPs” value (thalamic neurons [5]; 1.0 μM) is reported as 75.59±4.98%, the tremor activity (harmaline-induced tremor; CCPA 10-100 μM in microdialysis perfusate) is reported as “attenuated; also recorded: reduced tremor activity with a potency comparable to DBS” and the tremor following washout (harmaline-induced tremor) is reported as “rebound effect was often observed”. The “time course of depression of tremor” value (harmaline-induced tremor) was “developed slowly over minutes”.

For `CCCn1cnc2c1c(=O)n(CCCCC(C)=O)c(=O)n2C` [Propentofylline], the Ki (adenosine transport) is listed as 10 to 100 µM.

In the case of `Cc1cccc(C)c1NC(=O)CN1CCN(CCCC(c2ccc(F)cc2)c2ccc(F)cc2)CC1` [lidoflazine], the Ki (adenosine transport; unit inferred) is given as 0.1 µM.

In the case of `Nc1ncnc2c1ncn2C[C@@H](O)[C@@H](O)C(=O)O` [DEA, eritadenine[2(R),3(R)-dihydroxy-4-(9-zdenyl)-butyric acid]], the Ki [3] is listed as 0.03 µM.

For `N#Cc1cc2[nH]c(=O)c(=O)[nH]c2cc1[N+](=O)[O-]` [CNQX], the “HFS-induced change of neuronal membrane potential (depolarization / hyperpolarization)” value (thalamic neurons [6]) was 15.91±4.53 mV.

For `Nc1ncnc2c1c(Br)cn2C1CC(N)C(O)C1O` (stereo not drawn) [A-286501, N7-((1′R,2′S,3′R,4′S)-2′,3′-dihydroxy-4′-amino-cyclopentyl)-4-amino-5-bromo-pyrrolo[2,3-a]pyrimidine], the IC50 (adenosine kinase) is given as 470 pM.

In the case of `O=S(=O)(O)c1cc(N=C=S)ccc1C=Cc1ccc(N=C=S)cc1S(=O)(=O)O` [DIDS, 4,4′diisothiocyanatostilbene-2,2′disulphonec acid], the IC50 (Rat Parotid Ecto-ATPase) is listed as 150 µM.

In the case of 8-CH2BuS-ATP, the Ki [1] is listed as 45 µM.

In the case of `Nc1nccc2c1ncn2C[C@@H](O)[C@@H](O)C(=O)O` [C3-DEA, 3-deaza-DEA], the Ki ([3]; read-out: Ki) is listed as 1.5 µM.

For `COc1cc(C(=O)OCCCN2CCCN(CCCOC(=O)c3cc(OC)c(OC)c(OC)c3)CC2)cc(OC)c1OC` [dilazep], the Ki (adenosine transport) is given as 0.0001 to 0.001 µM.

In the case of `Nc1ncnc2c1ncn2[C@@H]1O/C(=C\F)[C@@H](O)[C@H]1O` [ZDDFA, (Z)-4′,5′-didehydro-5′-deoxy-5′-fluoroadenosine], the Ki [3] is listed as 0.0399 µM.

In the case of `N[C@@H](CCCP(=O)(O)O)C(=O)O` [APV], the “effect on HFS-induced depression of eEPSPs (FIG. 3G)” value (thalamic neurons [7]) is reported as “no significant effect” and the “HFS-induced change of neuronal membrane potential (depolarization / hyperpolarization)” value (thalamic neurons [6]) is reported as 18.15±6.69 mV.

In the case of `O=C1CCc2cc(OCCCCc3nnnn3C3CCCCC3)ccc2N1` [cilostazol], the IC50 (adenosine transport; adenosine uptake (Liu et al.)) is given as 10 µM.

For `Nc1ncnc2c1ncn2[C@@H]1O[C@H](CO)[C@@H](O)[C@H]1O` [adenosine], the EC50 (thalamic neurons [5]; Mus musculus, Neuron, aCSF containing 1-100 μM adenosine, read-out: ED50 for depression of eEPSP amplitude) was 3.35 ± 0.75 µM, the “maximal reduction of eEPSP amplitude” value (thalamic neurons [5]; aCSF containing 1-100 μM adenosine) was 76.13±6.47 % of control values and the tremor activity (harmaline-induced tremor; adenosine 1-10 mM in microdialysis perfusate) was “reduced tremor activity with a potency comparable to DBS”. The tremor following washout (harmaline-induced tremor) was “rebound effect was often observed” and the “time course of depression of tremor” value (harmaline-induced tremor) was “developed slowly over minutes”.

In the case of `NC(=O)C1CN(CC(=O)Nc2c(Cl)cccc2Cl)CCN1CCCC(c1ccc(F)cc1)c1ccc(F)cc1` (centres unmarked) [mioflazine], the Ki (adenosine transport; unit inferred) is listed as 0.01 µM.

For `Cc1ncc2n1-c1ccc(Cl)cc1C(c1ccccc1F)=NC2` [midazolam], the Ki (adenosine transport; unit inferred) is given as 1 µM.

In the case of `COC(=O)C(O)CCn1cnc2c(N)ncnc21` (centres unmarked) [DZ2002, methyl 4-(adenine-9-yl)-2-hydroxybutanoate], the Ki ([3]; read-out: Ki) is listed as 0.0179 µM.

In the case of `CCOc1ccc(Nc2ccc(C(=C3C=CC(=[N+](CC)Cc4cccc(S(=O)(=O)[O-])c4)C=C3)c3ccc(N(CC)Cc4cccc(S(=O)(=O)O)c4)cc3)cc2)cc1` [Coomassie brilliant blue R], the IC50 (Rat Parotid Ecto-ATPase) is listed as 114 µM.

For `Nc1ncnc2c1ncn2[C@@H]1O[C@H](COP(=O)(O)CP(=O)(O)OP(=O)(O)O)[C@@H](O)[C@H]1O` [α,β-MeATP], the “pIC 50” value (Ecto-ATPase [4]) is given as 4.5.

In the case of `CCOc1cc2nc(N3CCOCC3)nc(N3CCC(n4c(=O)c5cc(C)ccc5n(C)c4=O)CC3)c2cc1OCC` [KF 24345, 3-[1-(6,7-diethoxy-2-morpholinoquinazolin-4-yl)piperidin-4-yl]-1,6-dimethyl-2,4(1H,3H)-quinazolinedione hydrochloride], the Ki (adenosine transport) is listed as 0.0001 to 0.001 µM.

In the case of `Nc1ncnc2c1c(I)cn2[C@@H]1C[C@H](N)[C@@H](O)[C@H]1O` [A-134974], the IC50 (adenosine kinase; McGaraughty et al.) is listed as 60 pM.

In the case of `Nc1ncnc2c1ncn2[C@@H]1O[C@H](COP(=O)(O)OP(=O)(O)NP(=O)(O)O)[C@@H](O)[C@H]1O` [AMP-PNP], the “pIC 50” value (Ecto-ATPase [4]) is listed as 4.0.
